In patent US20190216767A1, “TOPICAL THERAPY FOR THE TREATMENT OF SKIN KERATOSES USING NANOPARTICLES OF TAXANES” (DFB SORIA, LLC, priority 2017, published 2019):
Where two headings read alike, the source gives them in different places.

Key:
[1] = methanol/water 15/85 (v/v), 37° C., pH 7, 75 rpm, cited from earlier work
[2] = Particle size of paclitaxel nanoparticles lots (ACCUSIZER 780); assay type: physicochemical; settings: nanoparticle API lot
Method: Max. Concentration: 9000 particles/mL, No. containers: 1, Sensor Range: Summation, Lower Detection Limit: 0.5 μm, Flow Rate: 30 mL/min, No. Analysis pulls: 4, Time between pulls: 1 sec, Pull volume: 10 mL, Tare Volume: 1 mL, Prime volume: 1 mL, Include First Pull: Not Selected.
Vortexed for 5-10 minutes and sonicated in a water batch for 1 minute.
Filled a plastic bottle with filtered (0.22 μm) 0.1% w/w SDS solution and analyzed the Background.

[3] = Bulk density (not tapped); assay type: physicochemical; settings: nanoparticle API lot
From the text: (§1) Taxane nanoparticles produced by various supercritical carbon dioxide particle size reduction methods can have unique physical characteristics as compared to taxane nanoparticles produced by conventional particle size reduction methods using physical impacting or grinding, e.g., wet or dry milling, micronizing, disintegrating, comminuting, microfluidizing, or pulverizing. […] This bulk density range is generally lower than the bulk density of taxane particles produced by conventional means, and the SSA is generally higher than the SSA of taxane particles produced by conventional means. […] As used herein, the “specific surface area (SSA)” is the total surface area of the taxane nanoparticle per unit of taxane mass as measured by the Brunauer-Emmett-Teller (“BET”) isotherm by the following method: a known mass between 200 and 300 mg of the analyte is added to a 30 mL sample tube. […] The automated test is then carried out using the BETWIN® software package and the surface area of each sample is subsequently calculated. The bulk density measurement can be conducted by pouring the taxane nanoparticles into a graduated cylinder without tapping at room temperature, measuring the mass and volume, and calculating the bulk density.

[4] = Specific surface area (SSA) by BET isotherm; assay type: physicochemical; settings: BET isotherm method, nanoparticle API lot
From the text: as §1

[5] = Solubility of paclitaxel in various solvents (HPLC); assay type: physicochemical
Method: Step “d” was continued for each vial for a total of 48 hours.

[6] = listed as paclitaxel nanoparticles lot used in the formulas listed in Table 3
[7] = listed as paclitaxel nanoparticles lot used in the formulas listed in Tables 16-19

In the case of `CC(=O)O[C@@]12CO[C@@H]1C[C@H](O)[C@@]1(C)C(=O)[C@H](O)C3=C(C)[C@@H](OC(=O)[C@H](O)[C@@H](NC(=O)OC(C)(C)C)c4ccccc4)C[C@@](O)([C@@H](OC(=O)c4ccccc4)[C@H]21)C3(C)C` [Docetaxel nanoparticles, docetaxel], the “dissolution rate, % dissolved in 30 minutes” value ([1]; nanoparticles made by milling) is listed as 9% and the “dissolution rate, % dissolved in 30 minutes” value ([1]; nanoparticles made by the supercritical carbon dioxide method) is listed as 27%.
For `CC(=O)O[C@H]1C(=O)[C@@]2(C)[C@H]([C@H](OC(=O)c3ccccc3)[C@]3(O)C[C@H](OC(=O)[C@H](O)[C@@H](NC(=O)c4ccccc4)c4ccccc4)C(C)=C1C3(C)C)[C@]1(OC(C)=O)CO[C@@H]1C[C@@H]2O` [Paclitaxel nanoparticles lot used in formulas listed in Tabl] [listing 1 of 2 here], the “Particle size (number-weighted differential distribution) Mean” value [2] was 0.861 μm, the “Particle size (number-weighted differential distribution) Median” value [2] was 0.710 μm and the “Particle size (number-weighted differential distribution) Mode” value [2] was 0.572 μm. The “bulk density (not-tapped)” value [3, 6] was 0.05 g/mL and the “specific surface area (SSA)” value [4, 6] was 41.24 m^2/g.
In the case of `CC(=O)O[C@H]1C(=O)[C@@]2(C)[C@H]([C@H](OC(=O)c3ccccc3)[C@]3(O)C[C@H](OC(=O)[C@H](O)[C@@H](NC(=O)c4ccccc4)c4ccccc4)C(C)=C1C3(C)C)[C@]1(OC(C)=O)CO[C@@H]1C[C@@H]2O` [Paclitaxel nanoparticles lot used in formulas listed in Tabl] [listing 2 of 2 here], the “Particle size (number-weighted differential distribution) Mean” value [2] is reported as 0.83 μm, the “bulk density (not-tapped)” value [3, 7] is reported as 0.09 g/mL and the “specific surface area (SSA)” value [4, 7] is reported as 26.72 m^2/g.
With `CC(=O)O[C@H]1C(=O)[C@@]2(C)[C@H]([C@H](OC(=O)c3ccccc3)[C@]3(O)C[C@H](OC(=O)[C@H](O)[C@@H](NC(=O)c4ccccc4)c4ccccc4)C(C)=C1C3(C)C)[C@]1(OC(C)=O)CO[C@@H]1C[C@@H]2O` [Paclitaxel, paclitaxel] the “Paclitaxel Solubility at RT” value ([5]; in Benzyl Alcohol, NF) was 17.02% w/w, the “Paclitaxel Solubility at RT” value ([5]; in Diethylene Glycol Monoethyl Ether, NF (TRANSCUTOL P)) was 33.10% w/w and the “Paclitaxel Solubility at RT” value ([5]; in Diisopropyl Adipate (CERAPHYL 230)) was 3.51% w/w. For the same molecule, the “Paclitaxel Solubility at RT” value ([5]; in Dimethyl Isosorbide) was 38.22% w/w, the “Paclitaxel Solubility at RT” value ([5]; in Hexylene Glycol) was 4.07% w/w and the “Paclitaxel Solubility at RT” value ([5]; in Isopropyl Myristate, NF) was 0.048% w/w. The “Paclitaxel Solubility at RT” value ([5]; in Medium Chain Triglycerides, NF) was 0.32% w/w, the “Paclitaxel Solubility at RT” value ([5]; in Mineral Oil, USP (heavy)) was 0.3 ppm and the “Paclitaxel Solubility at RT” value ([5]; in Polyethylene Glycol 400, NF) was 22.30% w/w. The “Paclitaxel Solubility at RT” value ([5]; in Propylene Carbonate) was 4.74% w/w, the “Paclitaxel Solubility at RT” value ([5]; in Propylene Glycol, USP) was 0.88% w/w and the “Paclitaxel Solubility at RT” value ([5]; in Purified Water, USP) was less than 0.05 ppm. For the same molecule, the “Paclitaxel Solubility at RT” value ([5]; in Purified Water, USP, listed as paclitaxel) was “less than 0.05 ppm”, the “Paclitaxel Solubility at RT” value ([5]; in Super Refined Oleic Acid, NF) was 0.041% w/w and the “Paclitaxel Solubility at RT” value ([5]; in Super Refined Oleyl Alcohol, NF) was 0.38% w/w.
